{"source": "paper PMC4976923", "about": "“Potent Allosteric Dengue Virus NS5 Polymerase Inhibitors: Mechanism of Action and Resistance Profiling” (PLoS Pathogens, 2016)", "key": {"DENV2 FL NS5 E802D": {"molecular_target": "T1, DENV2 FL NS5 E802D (Dengue virus type 2, UniProt P14340, E3293D)", "T1 construct": "Recombinant DENV2 (A, C) and DENV4 (B, D) FL NS5 proteins bearing single or double amino acid changes; made in house", "assay_type": "binding", "conditions": "50 µM compound; for Protein melting temperature, Tm, DENV2 FL NS5 E802D: DMSO 36"}, "DENV4 FL NS5 L512V": {"molecular_target": "T2, DENV4 FL NS5 L512V (Dengue virus type 4, UniProt P09866, L2999V)", "T2 construct": "Recombinant DENV2 (A, C) and DENV4 (B, D) FL NS5 proteins bearing single or double amino acid changes; made in house", "T2 sequence (P09866 2488-3387 L2999V)": "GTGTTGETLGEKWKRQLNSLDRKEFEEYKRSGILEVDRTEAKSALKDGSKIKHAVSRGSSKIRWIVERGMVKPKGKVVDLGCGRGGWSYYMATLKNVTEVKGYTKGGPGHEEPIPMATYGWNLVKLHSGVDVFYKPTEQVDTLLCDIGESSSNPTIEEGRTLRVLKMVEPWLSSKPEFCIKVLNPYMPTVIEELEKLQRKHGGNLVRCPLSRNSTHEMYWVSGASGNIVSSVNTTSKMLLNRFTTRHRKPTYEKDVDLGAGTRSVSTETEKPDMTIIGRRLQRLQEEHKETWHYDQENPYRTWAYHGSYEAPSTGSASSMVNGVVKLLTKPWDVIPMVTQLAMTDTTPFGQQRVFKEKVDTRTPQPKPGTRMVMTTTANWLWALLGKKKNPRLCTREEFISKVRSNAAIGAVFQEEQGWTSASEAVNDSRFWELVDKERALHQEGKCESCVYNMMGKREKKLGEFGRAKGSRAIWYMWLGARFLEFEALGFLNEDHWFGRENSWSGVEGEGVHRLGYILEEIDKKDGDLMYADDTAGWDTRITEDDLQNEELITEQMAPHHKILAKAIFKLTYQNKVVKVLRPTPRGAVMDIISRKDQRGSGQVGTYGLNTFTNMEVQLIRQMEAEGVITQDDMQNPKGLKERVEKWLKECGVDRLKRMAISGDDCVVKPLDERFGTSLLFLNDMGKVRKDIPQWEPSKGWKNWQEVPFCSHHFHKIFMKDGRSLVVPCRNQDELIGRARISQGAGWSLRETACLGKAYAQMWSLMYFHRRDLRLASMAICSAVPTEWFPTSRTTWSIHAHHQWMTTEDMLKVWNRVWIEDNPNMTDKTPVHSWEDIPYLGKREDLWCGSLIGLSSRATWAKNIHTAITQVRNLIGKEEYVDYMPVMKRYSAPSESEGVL", "assay_type": "binding", "conditions": "50 µM compound; for Protein melting temperature, Tm, DENV4 FL NS5 L512V: DMSO 36.5"}, "DENV4 FL NS5 L512V/Q802N": {"molecular_target": "T3, DENV4 FL NS5 L512V/Q802N (Dengue virus type 4, UniProt P09866, L2999V/Q3290N)", "T3 construct": "made in house", "T3 sequence (P09866 2488-3387 L2999V/Q3290N)": "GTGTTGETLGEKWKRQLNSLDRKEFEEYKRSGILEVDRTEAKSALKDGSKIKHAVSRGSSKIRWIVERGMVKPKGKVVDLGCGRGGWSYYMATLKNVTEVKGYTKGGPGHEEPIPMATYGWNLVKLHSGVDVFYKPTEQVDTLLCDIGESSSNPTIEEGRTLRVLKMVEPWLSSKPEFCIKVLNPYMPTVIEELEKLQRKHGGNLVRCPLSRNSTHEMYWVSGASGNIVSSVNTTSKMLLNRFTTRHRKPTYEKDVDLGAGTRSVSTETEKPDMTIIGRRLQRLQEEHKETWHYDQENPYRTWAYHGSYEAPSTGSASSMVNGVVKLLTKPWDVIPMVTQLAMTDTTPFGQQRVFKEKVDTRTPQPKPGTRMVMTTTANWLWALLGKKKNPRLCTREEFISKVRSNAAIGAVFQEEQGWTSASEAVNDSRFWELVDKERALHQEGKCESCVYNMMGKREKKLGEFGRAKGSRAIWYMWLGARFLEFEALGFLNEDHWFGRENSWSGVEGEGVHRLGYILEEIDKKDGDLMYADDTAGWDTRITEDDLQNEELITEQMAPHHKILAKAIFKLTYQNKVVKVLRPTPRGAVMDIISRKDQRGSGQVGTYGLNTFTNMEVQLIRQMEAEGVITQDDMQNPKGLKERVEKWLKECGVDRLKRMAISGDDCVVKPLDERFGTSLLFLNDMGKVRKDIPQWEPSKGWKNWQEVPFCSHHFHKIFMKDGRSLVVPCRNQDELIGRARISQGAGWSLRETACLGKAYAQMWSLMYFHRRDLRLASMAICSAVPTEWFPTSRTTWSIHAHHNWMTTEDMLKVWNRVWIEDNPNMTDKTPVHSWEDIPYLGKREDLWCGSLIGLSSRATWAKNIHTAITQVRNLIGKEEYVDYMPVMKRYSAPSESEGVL", "assay_type": "binding", "conditions": "50 µM compound; for Protein melting temperature, Tm, DENV4 FL NS5 L512V/Q802N: DMSO 36"}, "[1]": {"test_system": "Human rhinovirus (7 serotypes)", "assay": "Human rhinovirus cytopathic inhibition in HeLa cells", "assay_type": "cell-based", "conditions": "Rhinovirus A, 120 h, cytopathic inhibition over 5 days"}, "in vitro": {"assay": "in vitro", "assay_type": "cell-based", "conditions": "human; 4–5 days"}, "DENV2-NGC replicon L512V": {"test_system": "DENV2-NGC replicon L512V", "assay_type": "cell-based", "conditions": "electroporated BHK-21; 2 days"}, "[2]": {"test_system": "DENV2-NGC replicon L512V/E802D", "assay_type": "cell-based", "conditions": "electroporated BHK-21; 2 days"}, "DENV2-NGC virus E802D": {"test_system": "DENV2-NGC virus E802D", "assay_type": "cell-based", "conditions": "A549, MOI = 0.2; 48 hr; plaque assay"}, "[3]": {"test_system": "DENV2-NGC virus L512V/E802D", "assay_type": "cell-based", "conditions": "A549, MOI = 0.2; 48 hr; plaque assay"}, "[4]": {"test_system": "Compound 29-resistant DENV2-NGC EGFP-replicon cells", "assay": "Compound-resistant DENV2-NGC EGFP-replicon cells", "assay_type": "cell-based", "conditions": "Dengue virus, DENV2, 48 h, read-out: EC50, Compound 29-resistant DENV2-NGC EGFP-replicon cells"}, "DENV1, strain MY97-10245": {"test_system": "DENV1, strain MY97-10245", "conditions": "A549; 48 hr; read-out: DENV1 HCI, EC50; cited from earlier work"}, "[5]": {"test_system": "DENV2-NGC virus Wild Type", "assay": "WT DENV2-NGC virus in A549 cells, plaque assay", "conditions": "Dengue virus, DENV2, A549, 48 h, read-out: EC50, DENV2-NGC Virus, Wild Type", "protocol": "8 Plaque assay. Virus stock was produced b y harvesting the supernatant of DENV2 full -length\n9 RNA- transf ected BHK -21 cells at 24, 48, 72, 96, and 120 hours post transfection. Virus titer\n10 and morphology were determined by st andard plaque assa y. Briefl y, a seri es of 10 -fold\n11 dilutions was prepared by first diluting 50 µl virus stock with 450 µl RPMI 1640 m edia\n12 containing 2 % FBS to obtain 10-1 dilution and then further diluted until a final 10 -6 dilution\n13 was achieved. Confluent BHK-21 cells (1 × 10^5 cells per well, plated 2 da ys in advance)\n14 grown in 24-well plate was added with 200 µl of each dilution per well. Duplicates were\n15 prepared for each time point and dilution factor. The infection was allowed to proceed at\n16 30°C for 1 hour, followed by removing the m edia and adding 500 µl 0.8% methyl-cellulose\n17 overla y (containing RPM I, 2 % FBS, 1 % P/S, 0.05 % NaHCO 3, 25 mM Na Hepes, and\n18 0.5 % DMSO) into each well. The plates were incubated for 5 da ys at 37 °C in 5 % CO 2\n19 before fixing in 3.7 % formaldehyde and staining with 1 % cr ystal violet. The viral titer was\n20 calculated as plaque- forming unit (PFU) per ml."}, "DENV4 RdRp": {"molecular_target": "DENV4 RdRp (Dengue virus type 4, UniProt P09866)", "sequence (P09866 2753-3387)": "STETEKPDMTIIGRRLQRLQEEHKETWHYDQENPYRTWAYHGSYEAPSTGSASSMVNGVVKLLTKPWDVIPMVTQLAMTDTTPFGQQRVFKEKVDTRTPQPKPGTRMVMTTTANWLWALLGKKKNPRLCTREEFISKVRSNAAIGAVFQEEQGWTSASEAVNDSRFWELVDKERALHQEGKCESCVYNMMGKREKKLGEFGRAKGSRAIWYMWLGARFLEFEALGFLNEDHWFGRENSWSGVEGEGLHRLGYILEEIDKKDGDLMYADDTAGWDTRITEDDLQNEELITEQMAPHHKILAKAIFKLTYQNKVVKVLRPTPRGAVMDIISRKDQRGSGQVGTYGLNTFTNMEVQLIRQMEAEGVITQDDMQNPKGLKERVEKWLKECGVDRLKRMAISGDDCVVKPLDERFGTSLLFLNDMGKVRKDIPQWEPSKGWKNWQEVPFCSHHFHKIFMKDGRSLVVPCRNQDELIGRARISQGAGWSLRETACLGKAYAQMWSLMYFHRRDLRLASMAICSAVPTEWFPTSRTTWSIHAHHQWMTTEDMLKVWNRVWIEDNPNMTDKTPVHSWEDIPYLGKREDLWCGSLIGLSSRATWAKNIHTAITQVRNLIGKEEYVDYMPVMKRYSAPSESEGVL", "assay": "Surface plasmon resonance binding assay (Biacore T200)", "protocol": "Biotinylated DENV3 and DENV4 RdRp were captured on flow cells 2 and 4 respectively in 50 mM Tris/HCl, pH 7.5, 200 mM NaCl, 2 mM DTT, 0.05% Tween 20, and 3% DMSO at 4°C. Flow cell 1 and 3 were left blank to serve as a reference [37]. […] Compounds were injected at a flow rate of 30 μL/min, with 45 s contact time and 600 s dissociation, starting from the DMSO control and finishing with the highest concentration."}, "DENV1 FL NS5": {"molecular_target": "T4, DENV1 FL NS5 (Dengue virus type 1, UniProt P17763)", "T4 construct": "100 nM DENV FL NS5 protein was added; made in house", "T4 sequence (P17763 2494-3392)": "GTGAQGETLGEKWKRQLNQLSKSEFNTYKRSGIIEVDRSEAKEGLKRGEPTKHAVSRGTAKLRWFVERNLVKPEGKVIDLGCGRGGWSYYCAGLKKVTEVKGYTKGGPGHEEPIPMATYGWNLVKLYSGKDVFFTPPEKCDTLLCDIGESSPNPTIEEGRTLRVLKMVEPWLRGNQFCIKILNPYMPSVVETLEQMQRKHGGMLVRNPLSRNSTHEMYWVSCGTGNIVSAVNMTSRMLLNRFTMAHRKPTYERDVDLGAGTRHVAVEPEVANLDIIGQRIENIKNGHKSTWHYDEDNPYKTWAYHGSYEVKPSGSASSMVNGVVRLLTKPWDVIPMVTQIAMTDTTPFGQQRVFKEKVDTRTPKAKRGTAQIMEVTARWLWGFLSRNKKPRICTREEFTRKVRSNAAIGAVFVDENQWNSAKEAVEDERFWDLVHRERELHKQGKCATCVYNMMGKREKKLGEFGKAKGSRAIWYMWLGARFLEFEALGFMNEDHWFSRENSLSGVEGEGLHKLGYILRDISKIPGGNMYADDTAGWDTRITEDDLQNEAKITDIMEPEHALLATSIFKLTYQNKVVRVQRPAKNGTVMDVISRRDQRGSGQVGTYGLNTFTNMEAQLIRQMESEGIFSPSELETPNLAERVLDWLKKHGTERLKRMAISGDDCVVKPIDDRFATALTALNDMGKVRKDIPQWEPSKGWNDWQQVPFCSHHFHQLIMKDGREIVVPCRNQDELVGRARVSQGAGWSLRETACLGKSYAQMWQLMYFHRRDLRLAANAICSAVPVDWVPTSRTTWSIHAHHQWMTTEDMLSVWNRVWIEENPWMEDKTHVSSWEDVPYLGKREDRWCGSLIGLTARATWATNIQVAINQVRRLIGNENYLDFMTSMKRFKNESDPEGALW", "assay": "DENV1 FL NS5 de novo initiation FAPA assay", "assay_type": "biochemical", "conditions": "one experiment; read-out: DENV FL NS5 de novo initiation FAPA, IC50, DENV1", "method": "DENV1-4 FL NS5 dnI assays were performed as described previously. Briefly, compounds from 0–20 or -100 μM concentrations are two-fold serially diluted into 384-well black opaque plates (Corning Costar), after which 100 nM DENV FL NS5 protein was added and the plates incubated at RT for 20 min. RNA and ATTO-CTP, ATP, GTP and UTP were then added and the plates incubated for another 120 min. Reactions were stopped with buffer containing 25 nM CIP, re- incubated at RT for 60 min and read on a Tecan Safire II microplate reader. For order-of-addition experiments, DENV4 FL NS5 was incubated for one hour at RT with RNA, ATP, and GTP or RNA, ATP, GTP and ATTO-CTP, followed by exposure to serially diluted compounds for 20 min at RT. The missing components (ATTO-CTP and UTP or UTP alone) were added and the reactions continued for 120 min after which STOP buffer was added as before. All datapoints were performed in duplicate wells. Each compound was tested at least twice.\n2 Co mpound testing with DENV dn I FAPA assays. Final dn I assa y reaction mixtures\n3 contained 100 nM DENV 5 ´UTR-L-3´UTR IVT RNA, 20 µ M ATP, 20 µM GTP, 20 µM\n4 UTP, 5 µM ATTO -CTP, and 100 nM of DENV FL NS5 protein in 15 µl in assa y buffer\n5 comprising 50 mM Tris/ HCl, pH 7.5, 10 mM KCl, 1 mM MgCl2, 0.3 mM MnCl2 (DENV2\n6 and 4) or 1 mM MnCl 2 (DENV1 and 3), 0.001% Triton- X-100 and 10 µ M cystein e [ 1] . To\n7 perform dose-respons e inhibition measurements, compounds from 0- 20 or - 100 µM\n8 concentr ations are two -fold seriall y diluted into 384-well black opaqu e plat es (Corning\n9 Costar), after which 100 nM DENV FL NS5 protein was added into resp ect ive wells. The\n10 plates wer e sealed, b riefl y shak en and centrif uged at 1500 rpm for 30 sec and incubated at RT\n11 for 15 min. Thereafter,RNA and ATTO -CTP, ATP, GTP and UTP were added to the wells to\n12 start the reactions. The pl ates wer e re-seal ed, shaken and centrifuged as before, followed b y\n13 incubation RT for 120 min. Reactions were stopped by addition of 10 µl of 2.5X STOP\n14 buffer (200 mM NaCl, 25 mM MgCl2, 1.5M DEA, pH 10; Promega) with 25 nM calf\n15 intestinal phosphatase (CIP), re- incubation at RT for 60 min and read on a Tecan Safire II\n16 microplate reader. For o r der-of-addition experiments, DENV4 FL NS5 was incubated for one\n17 hour at RT with RNA, ATP, and GTP or RNA, ATP, GTP and ATTO-CTP, followed by\n18 exposure to seriall y dilut ed compounds for 20 mi n at RT. The missing components (ATTO-\n19 CTP and UTP or UTP alone) were added and the reactions continued for 120 min after which\n20 STOP buffer was added as before. All datapoints were performed in duplicate wells. Each\n21 compound was tested at l east twice.\n23 Compound testing in DENV1-4 infected cells by high content imaging. Approximatel y 7\n24 × 10^3 A549 cells per well were s eeded into 384-well plates in Ham’s F-12K medium"}}}
{"smiles": "COc1cccc(S(=O)(=O)NC(=O)c2cc(-c3ccc(C#CCO)s3)c(OC)cc2OC)c1", "note": "[Compound 27]", "values": [{"measurement": "Tm change compared to DMSO control, DENV2 FL NS5 E802D", "setting": "DENV2 FL NS5 E802D", "value": 0, "unit": "°C"}, {"measurement": "Protein melting temperature, Tm, DENV2 FL NS5 E802D", "setting": "DENV2 FL NS5 E802D", "value": 36, "unit": "°C"}, {"measurement": "Tm change compared to DMSO control, DENV4 FL NS5 L512V", "setting": "DENV4 FL NS5 L512V", "value": 0, "unit": "°C"}, {"measurement": "Protein melting temperature, Tm, DENV4 FL NS5 L512V", "setting": "DENV4 FL NS5 L512V", "value": 36.5, "unit": "°C"}, {"measurement": "Tm change compared to DMSO control, DENV4 FL NS5 L512V/Q802N", "setting": "DENV4 FL NS5 L512V/Q802N", "value": -1, "unit": "°C"}, {"measurement": "Protein melting temperature, Tm, DENV4 FL NS5 L512V/Q802N", "setting": "DENV4 FL NS5 L512V/Q802N", "value": 35, "unit": "°C"}, {"measurement": "EC50", "setting": "[1]", "value": "> 50", "unit": "µM"}, {"measurement": "CC50", "setting": "in vitro", "value": "> 50", "unit": "µM"}, {"measurement": "EC50", "setting": "DENV2-NGC replicon L512V", "value": 25.9, "unit": "µM"}, {"measurement": "EC50", "setting": "[2]", "value": 28.4, "unit": "µM"}, {"measurement": "EC50", "setting": "DENV2-NGC virus E802D", "value": 1.42, "unit": "µM"}, {"measurement": "EC50", "setting": "[3]", "value": 2.32, "unit": "µM"}, {"measurement": "EC50", "setting": "[4]", "value": 41.7, "unit": "µM"}, {"measurement": "EC50", "setting": "DENV1, strain MY97-10245", "value": "1.8 ± 0.1", "unit": "µM"}, {"measurement": "EC50", "setting": "[5]", "value": 0.87, "unit": "µM"}, {"measurement": "SPR % Rmax", "setting": "DENV4 RdRp", "value": 66.8, "unit": "%"}]}
{"smiles": "COc1cccc(S(=O)(=O)NC(=O)c2cc(-c3ccc(C#CCO)s3)c(OC)cc2C)c1", "note": "[Compound 26i]", "values": [{"measurement": "IC50", "setting": "DENV1 FL NS5", "value": 0.024, "unit": "µM"}]}
{"smiles": "COc1cc(OC)c(-c2ccc(C#CCO)s2)cc1C(=O)NS(=O)(=O)c1cccc2cccnc12", "note": "[Compound 29]", "values": [{"measurement": "IC50", "setting": "DENV1 FL NS5", "value": 0.013, "unit": "µM"}, {"measurement": "Tm change compared to DMSO control, DENV2 FL NS5 E802D", "setting": "DENV2 FL NS5 E802D", "value": 2.0, "unit": "°C"}, {"measurement": "Protein melting temperature, Tm, DENV2 FL NS5 E802D", "setting": "DENV2 FL NS5 E802D", "value": 38, "unit": "°C"}, {"measurement": "Tm change compared to DMSO control, DENV4 FL NS5 L512V", "setting": "DENV4 FL NS5 L512V", "value": 1.5, "unit": "°C"}, {"measurement": "Protein melting temperature, Tm, DENV4 FL NS5 L512V", "setting": "DENV4 FL NS5 L512V", "value": 38, "unit": "°C"}, {"measurement": "Tm change compared to DMSO control, DENV4 FL NS5 L512V/Q802N", "setting": "DENV4 FL NS5 L512V/Q802N", "value": -0.5, "unit": "°C"}, {"measurement": "Protein melting temperature, Tm, DENV4 FL NS5 L512V/Q802N", "setting": "DENV4 FL NS5 L512V/Q802N", "value": 35.5, "unit": "°C"}, {"measurement": "EC50", "setting": "[1]", "value": "> 50", "unit": "µM"}, {"measurement": "CC50", "setting": "in vitro", "value": "> 50", "unit": "µM"}, {"measurement": "EC50", "setting": "DENV2-NGC replicon L512V", "value": 32.3, "unit": "µM"}, {"measurement": "EC50", "setting": "[2]", "value": 38.8, "unit": "µM"}, {"measurement": "EC50", "setting": "DENV2-NGC virus E802D", "value": 5.8, "unit": "µM"}, {"measurement": "EC50", "setting": "[3]", "value": 7.01, "unit": "µM"}, {"measurement": "EC50", "setting": "[4]", "value": 34, "unit": "µM"}, {"measurement": "EC50", "setting": "DENV1, strain MY97-10245", "value": "6.3 ± 0.9", "unit": "µM"}, {"measurement": "EC50", "setting": "[5]", "value": 1.11, "unit": "µM"}, {"measurement": "SPR % Rmax", "setting": "DENV4 RdRp", "value": 20.9, "unit": "%"}]}
